Patent US20200261543A1, “COMBINATION THERAPY FOR TREATMENT OF BONE DISORDERS” (University of Copenhagen, priority 2017, published 2020)

Key:
[1] = tested on: serum C-terminal cross-linking telopeptide of type I collagen (CTX); assay: Nocturnal CTX (bone resorption) in postmenopausal women, Example 6; format: in vivo, human
Description: Ten healthy postmenopausal women are enrolled and the study includes four study days in randomised order (with a minimum of 1 week washout between study days) where human GIP (hGIP 100 μg), human GLP-2 ([…]), hGIP+hGLP-2 (100 μg+400 μg), or placebo, are injected subcutaneously. The participants arrive in the evening around 9 p.m. (fasted from ˜7 p.m.) and receive the injections at 10 p.m. Blood samples are collected before (−10 and −5 min) and after injection (7, 15, 30, 45, 60, 90, 120, 180 and 240 min). Bone resorption was determined by measurements of serum C-terminal cross-linking telopeptide of type I collagen (CTX; IDS Immunodiagnostic Systems GmbH, Frankfurt am Main, Germany). The doses of GIP and GLP-2 were selected as discussed in example 2.

[2] = tested on: serum C-terminal cross-linking telopeptide of type I collagen (CTX); assay: Serum CTX (bone resorption) after s.c. injection in healthy young men, Example 1/3 study; format: in vivo, human; details: for reduction in bone resorption (CTX): 200 μg GIP and 800 μg GLP-2, Example 1 as summarised in Example 2; for time of maximum effect on bone resorption (CTX): GIP 200 μg or GLP-2 800 μg s.c.
Description: (§1) Eight healthy young men were enrolled. The study included three study days in randomised order (with a minimum of 1 week washout between study days) where human GIP (200 μg), human GLP-2 (800 μg), or placebo was injected subcutaneously. Participants arrived in the morning (fasted overnight) and received the injection around 8.30 a.m. Blood samples were collected before (−25 and −10 min) and every 30 minutes after injection (30, 60, 90, 120, 180 and 240 min). After last participant's last visit, bone resorption was determined by measurements of serum C-terminal cross-linking telopeptide of type I collagen (CTX; IDS Immunodiagnostic Systems GmbH, Frankfurt am Main, Germany)
(§2) Eight healthy young men were enrolled, and the study was conducted as outlined in Example 1. After last participant's last visit, bone resorption was determined by measurements of CTX (IDS Immunodiagnostic Systems GmbH, Frankfurt am Main, Germany) and bone formation was determined by measurements of serum N-terminal propeptide of type 1 collagen (P1NP; IDS Immunodiagnostic Systems GmbH, Frankfurt am Main, Germany). In addition, serum concentration of parathyroid hormone (PTH; IDS Immunodiagnostic Systems GmbH, Frankfurt am Main, Germany) was measured.

[3] = tested on: parathyroid hormone (PTH); assay: Serum PTH after s.c. injection, Example 3; format: in vivo, human; details: for time of maximum effect on PTH: GIP 200 μg or GLP-2 800 μg s.c.; for PTH level at maximum effect: 15 min after injection
Description: as §1, with “Blood samples were collected before (−25 and −10 min) and every 30 minutes after injection (30, 60, 90, 120, 180 and 240 min).” left out
as §2

[4] = tested on: serum N-terminal propeptide of type 1 collagen (P1NP); assay: Serum P1NP (bone formation) after s.c. injection, Example 3; format: in vivo, human; details: for time of maximum effect on bone formation (P1NP): GIP 200 μg or GLP-2 800 μg s.c.
Description: as §1, §2

CTX = CTX (bone resorption) after s.c. injection alone or in combination, Example 2/4 study; format: in vivo, human; details: Example 4; for time of maximum effect on bone resorption (CTX): GIP 100 μg, GLP-2 400 μg or both s.c.
Description: (§3) Ten healthy young men are enrolled and the study includes four study days in randomised order (with a minimum of 1 week washout between study days) where human GIP (100 μg), human GLP-2 (400 μg), GIP+GLP-2 (100 μg+400 μg), or placebo are injected subcutaneously. The participants arrive in the morning (fasted overnight) and receive the injection around 8.30 a.m. Blood samples are collected before (−25 and −10) and every 30 minutes after injection (30, 60, 90, 120, 180 and 240 min) injection. After last participant's last visit, samples are analysed for concentrations of bone resorption markers (CTX).
as §2, with “Ten” for “Eight”, “are enrolled” for “were enrolled,”, “2.” for “1.”, “measured. The doses of GIP and GLP-2 were selected as discussed in example 2.” for “measured.”

[5] = tested on: serum N-terminal propeptide of type 1 collagen (P1NP); assay: Serum P1NP (bone formation) after s.c. injection alone or in combination, Example 4; format: in vivo, human; details: for time of maximum effect on bone formation (P1NP): GIP 100 μg or GLP-2 400 μg s.c.
Description: as §3
as §2, with “Ten” for “Eight”, “are enrolled” for “were enrolled,”, “2.” for “1.”, “measured. The doses of GIP and GLP-2 were selected as discussed in example 2.” for “measured.”

[6] = tested on: parathyroid hormone (PTH); assay: Serum PTH after s.c. injection alone or in combination, Example 4; format: in vivo, human; details: for time of maximum effect on PTH: GIP 100 μg, GLP-2 400 μg or both s.c.
Description: as §3, with “Blood samples are collected before (−25 and −10) and every 30 minutes after injection (30, 60, 90, 120, 180 and 240 min) injection.” left out
as §2, with “Ten” for “Eight”, “are enrolled” for “were enrolled,”, “2.” for “1.”, “measured. The doses of GIP and GLP-2 were selected as discussed in example 2.” for “measured.”

[7] = tested on: serum C-terminal cross-linking telopeptide of type I collagen (CTX); assay: Serum CTX (bone resorption) after s.c. GLP-1, Example 5; format: in vivo, human; details: GLP-1 1.5 nmol/kg s.c.
Description: Eight healthy young people were enrolled (five male, three female). […] Participants arrived in the morning after an overnight fast. Blood samples were collected before (−15 and 0 min) and after injection (15, 30, 45, 60, 90 and 120 min). After last participant's last visit, bone resorption was determined by measurements of serum C-terminal cross-linking telopeptide of type I collagen (CTX; IDS Immunodiagnostic Systems GmbH, Frankfurt am Main, Germany).

[8] = in vivo; cited from earlier work

## YAEGTFISDYSIAMDKIHQQDFVNWLLAQKGKKNDWKHNITQ [GIP]
[1]; GIP 100 μg s.c. at 10 p.m.
  nocturnal bone resorption (CTX) compared to placebo: reduced bone resorption was seen from 30 min to 120 min
[2]
  reduction in bone resorption (CTX): ~50%
[2]; Example 1
  time of maximum effect on bone resorption (CTX): 90 min
[2]; Example 3
  time of maximum effect on bone resorption (CTX): 90 min
[2]; GIP 200 μg s.c., 90 min after injection, Example 3 (completed study)
  bone resorption (CTX) at maximum effect: 55.3±17.9 % of base line
[2]; GIP 200 μg s.c., 90 min after injection, healthy young men, Example 1
  bone resorption (CTX) at maximum effect: 56.2±11.2 % of base line
[3]
  time of maximum effect on PTH: 15 min
[3]; GIP 200 μg s.c.
  PTH level at maximum effect: 71.2±11.4 % of basal levels
[4]
  time of maximum effect on bone formation (P1NP): 30 min
[4]; GIP 200 μg s.c., 30 min after injection
  bone formation (P1NP) at maximum effect (increase): 115.1±6.2 % of base line
CTX; GIP 100 μg s.c. alone, 90 min after administration
  bone resorption (CTX) at maximum effect: 57.6±17.9 % of basal
CTX
  time of maximum effect on bone resorption (CTX): 90 min
[5]
  time of maximum effect on bone formation (P1NP): 30 min
[5]; GIP 100 μg s.c., 30 min after injection
  bone formation (P1NP) at maximum effect (increase): 111.1±9.0 % of base line
[6]; GIP 100 μg s.c., 15 min after injection
  PTH level at maximum effect: 73.0±19.2 % of basal levels
[6]
  time of maximum effect on PTH: 15 min

## HADGSFSDEMNTILDNLAARDFINWLIQTKITD [GLP-2]
[1]; GLP-2 400 μg s.c. at 10 p.m.
  nocturnal bone resorption (CTX) compared to placebo: reduced bone resorption during the entire study period
[2]
  reduction in bone resorption (CTX): ~50%
[2]; Example 1
  time of maximum effect on bone resorption (CTX): 180 min
[2]; Example 3
  time of maximum effect on bone resorption (CTX): 180 min
[2]; GLP-2 800 μg s.c., 180 min after administration, Example 3 (completed study)
  bone resorption (CTX) at maximum effect: 60.5±14.1 % of base line
[2]; GLP-2 800 μg s.c., 180 min after administration, healthy young men, Example 1
  bone resorption (CTX) at maximum effect: 63.4±3.4 % of base line
[3]
  time of maximum effect on PTH: 15 min
[3]; GLP-2 800 μg s.c.
  PTH level at maximum effect: 71.9±13.9 % of basal levels
[4]
  time of maximum effect on bone formation (P1NP): 45 min
[4]; GLP-2 800 μg s.c., 45 min after injection
  bone formation (P1NP) at maximum effect (reduction): 88.1±8.5 % of base line
CTX
  time of maximum effect on bone resorption (CTX): 210 min
CTX; GLP-2 400 μg s.c. alone, 210 min after injection
  bone resorption (CTX) at maximum effect: 58.2±16.0 % of basal
[5]
  time of maximum effect on bone formation (P1NP): 60 min
[5]; GLP-2 400 μg s.c., 60 min after injection
  bone formation (P1NP) at maximum effect (reduction): 88.2±9.4 % of base line
[6]
  time of maximum effect on PTH: 45 min
[6]; GLP-2 400 μg s.c., 45 min after injection
  PTH level at maximum effect: 65.7±16.8 % of basal levels

## GLP-1: human glucagon-like peptide-1; which form (SEQ ID NO: 7, 8 or 9) was injected is not stated
[7]
  time of maximum effect on bone resorption (CTX): 120 min
[7]; 120 min after injection, healthy young people
  bone resorption (CTX) at maximum effect: 74.4±3.7 % of base line
[8]
  fasting plasma levels: 0 to 15 pmol/L
